Data on 12 compounds can be found in ChEMBL document CHEMBL1132880, “Novel arylpiperazines as selective alpha1-adrenergic receptor antagonists” (Bioorg Med Chem Lett, 2000).

Assay [1] addresses T1, Alpha-1D adrenergic receptor (Homo sapiens, UniProt P25100).
T1 sequence (P25100 whole entry): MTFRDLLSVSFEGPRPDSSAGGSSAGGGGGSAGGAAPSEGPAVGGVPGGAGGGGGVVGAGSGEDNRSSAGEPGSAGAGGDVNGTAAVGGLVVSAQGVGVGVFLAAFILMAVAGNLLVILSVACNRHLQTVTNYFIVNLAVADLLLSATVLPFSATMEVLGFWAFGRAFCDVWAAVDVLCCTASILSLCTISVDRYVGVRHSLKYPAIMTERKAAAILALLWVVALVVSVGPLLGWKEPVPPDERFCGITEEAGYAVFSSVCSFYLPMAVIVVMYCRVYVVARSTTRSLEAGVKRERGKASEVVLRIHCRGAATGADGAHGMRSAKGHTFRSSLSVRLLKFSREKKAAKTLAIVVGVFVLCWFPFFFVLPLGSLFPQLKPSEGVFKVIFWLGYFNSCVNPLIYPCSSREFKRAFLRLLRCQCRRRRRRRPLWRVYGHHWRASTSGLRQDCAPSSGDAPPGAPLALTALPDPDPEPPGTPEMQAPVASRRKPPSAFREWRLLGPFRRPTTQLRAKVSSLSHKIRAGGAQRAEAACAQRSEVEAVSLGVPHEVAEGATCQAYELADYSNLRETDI
Briefly: Binding affinity for human Alpha-1D adrenergic receptor expressed in COS cell membranes.

In assay [2] the target is T2, Alpha-1B adrenergic receptor (Homo sapiens, UniProt P35368).
T2 sequence (P35368 whole entry): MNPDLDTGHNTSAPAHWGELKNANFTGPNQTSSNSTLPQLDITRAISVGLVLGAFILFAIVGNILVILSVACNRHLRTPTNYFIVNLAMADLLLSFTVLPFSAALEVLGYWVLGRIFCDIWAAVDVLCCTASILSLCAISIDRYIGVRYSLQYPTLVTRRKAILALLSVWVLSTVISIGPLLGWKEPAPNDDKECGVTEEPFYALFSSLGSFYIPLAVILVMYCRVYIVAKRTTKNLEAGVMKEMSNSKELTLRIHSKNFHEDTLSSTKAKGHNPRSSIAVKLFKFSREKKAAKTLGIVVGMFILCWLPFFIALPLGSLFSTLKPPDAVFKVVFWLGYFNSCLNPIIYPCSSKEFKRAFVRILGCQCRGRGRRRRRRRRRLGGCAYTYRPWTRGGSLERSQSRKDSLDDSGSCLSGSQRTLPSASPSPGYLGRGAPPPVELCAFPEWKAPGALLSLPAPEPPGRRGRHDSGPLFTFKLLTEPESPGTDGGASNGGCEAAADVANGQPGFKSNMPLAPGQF
Briefly: Binding affinity for human Alpha-1B adrenergic receptor expressed in COS cell membranes.

The target in assay [3] is T3, Alpha-1A adrenergic receptor (Homo sapiens, UniProt P35348).
T3 sequence (P35348 whole entry): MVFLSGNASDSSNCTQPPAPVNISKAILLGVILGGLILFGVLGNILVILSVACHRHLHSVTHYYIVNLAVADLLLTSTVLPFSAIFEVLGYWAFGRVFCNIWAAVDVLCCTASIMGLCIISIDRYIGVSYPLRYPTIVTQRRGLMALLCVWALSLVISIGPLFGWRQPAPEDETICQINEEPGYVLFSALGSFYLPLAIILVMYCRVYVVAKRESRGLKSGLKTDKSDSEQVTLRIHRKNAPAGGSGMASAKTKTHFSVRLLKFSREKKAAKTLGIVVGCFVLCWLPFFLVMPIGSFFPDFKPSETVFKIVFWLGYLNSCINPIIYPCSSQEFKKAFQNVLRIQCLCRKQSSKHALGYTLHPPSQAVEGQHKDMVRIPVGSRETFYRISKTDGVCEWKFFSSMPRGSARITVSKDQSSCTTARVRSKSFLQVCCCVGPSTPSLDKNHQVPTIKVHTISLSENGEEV
Briefly: Binding affinity for human Alpha-1A adrenergic receptor expressed in COS cell membranes.

Assay [4] addresses Adrenergic receptors; alpha-1 A & B (Homo sapiens) (UniProt P35348+P35368). Briefly: Relative binding affinity for human adrenergic receptor alpha 1b and alpha 1a. In kind it is protein assay.
Assay [5] concerns the target Alpha adrenergic receptor (1a and 1d) (Homo sapiens) (UniProt P35348+P25100). Briefly: Relative binding affinity for human adrenergic receptor alpha 1d and 1a. In kind it is protein assay.
For assay [6], the species on record is Rattus norvegicus. Briefly: pA2 data of Compound was evaluated for tissue contractions in isolated rat prostatic tissue strips. The assay is classed as functional. To be noted: read-out: pA2 (converted).

What is called Ki is the dissociation constant of the complex between target and ligand, obtained from inhibition or displacement. A lower Ki goes with higher affinity. Turning to `COc1ccccc1N1CCN(CCCNC(=O)CN2CCCCC2=O)CC1`, the Ki in assay [1] was found to be 10000 nM; in assay [2], 10000 nM; in assay [3] it was 98 nM. The Ratio in assay [4] and in assay [5] was 102 in each case.

Turning to `CC(C)Oc1ccccc1N1CCN(CC(=O)CC(=O)CN2CCCCC2=O)CC1`, the results for the Ki in assay [1], in assay [2] and in assay [3] were 6040 nM, 10000 nM and 417 nM, respectively. Also, the values for the Ratio in assay [4] and in assay [5] were 24 and 14, respectively.

`CC(C)Oc1ccccc1N1CCN(CCNC(=O)CN2CCCCC2=O)CC1` [RWJ-38063]: the Ki in assay [1] amounted to 372 nM; in assay [2] it was 46100 nM; in assay [3], 8.7 nM. Moreover, the Kb in assay [6] is 31.6 nM. Moreover, the Ratio was 5300 in assay [4] and 43 in assay [5].

`CC(C)Oc1cc(F)ccc1N1CCN(CCNC(=O)CN2CCCCC2=O)CC1`: the Ki came out at 4500 nM in assay [1], 10000 nM in assay [2] and 83 nM in assay [3]. For the same compound, the values for the Ratio in assay [4] and in assay [5] were 120 and 54, respectively.

For `O=C(CN1CCCCC1=O)NCCN1CCN(c2ccc(F)cc2OCC(F)(F)F)CC1`, the results for the Ki in assay [1], in assay [2] and in assay [3] were 5350 nM, 10000 nM and 129 nM, respectively. The Ratio in assay [4] was found to be 77; in assay [5] it was 41.

`CC(C)Oc1ccccc1N1CCN(CCCNC(=O)CN2CCCCC2=O)CC1` [RWJ-69736]: the inhibition constant (Ki) came out at 80 nM in assay [1], 10000 nM in assay [2] and 0.66 nM in assay [3]. Also, the results for the Ratio in assay [4] and in assay [5] were 15200 and 121, respectively.

For `CC(C)Oc1ccccc1N1CCN(CCNC(=O)CN2CCCCCC2=O)CC1` [RWJ-68157], the values for the Ki in assay [1], in assay [2] and in assay [3] were 505 nM, 3540 nM and 18 nM, respectively. For the same compound, the Kb in assay [6] was 204 nM. For the same compound, the Ratio in assay [4] worked out at 196; in assay [5] it was 28.

Consider `CC(C)Oc1ccccc1N1CCN(C/C=C/C(=O)CN2CCCCC2=O)CC1`, for which the Ki stood at 602 nM in assay [1], 5320 nM in assay [2] and 18 nM in assay [3]. Further, the Ratio was 295 in assay [4] and 33 in assay [5].

Turning to `CCOC(=O)C1CCC(=O)N1CC(=O)NCCN1CCN(c2ccccc2OC(C)C)CC1` (stereo not drawn), the values for the inhibitory constant (Ki) in assay [1], in assay [2] and in assay [3] were 260 nM, 26300 nM and 20 nM, respectively. Moreover, the Kb in assay [6] is 16.2 nM. The Ratio in assay [4] was determined as 1320; in assay [5] it was 13.

Regarding `CC(C)Oc1ccccc1N1CCN(CCN(C)C(=O)CN2CCCCC2=O)CC1`, the figures for the Ki in assay [1], in assay [2] and in assay [3] were 650 nM, 10000 nM and 53 nM, respectively. The Ratio came to 187 in assay [4] and 12 in assay [5].

Consider `CC(C)Oc1ccccc1N1CCN(CCOC(=O)CN2CCCCC2=O)CC1`, for which the Ki in assay [1] stood at 108 nM; in assay [2], 2240 nM; in assay [3] it was 38 nM. The Ratio in assay [4] came to 59; in assay [5], 3.

Take `CC(C)Oc1ccccc1N1CCN(CC(O)CC(=O)CN2CCCCC2=O)CC1` (stereo not drawn): the Ki in assay [1] is 253 nM; in assay [2], 10000 nM; in assay [3], 28 nM. Also, the values for the Ratio in assay [4] and in assay [5] were 556 and 9, respectively.
